From patent publication US11684597B2, “Administration of tailored feedstock to increase nitro-containing amphenicol antibiotic susceptibility” (U.S. Army Research Laboratory, priority 2019, dated 2023) come the findings set out here.

The assay concerns Clostridium acetobutylicum strain ATCC 824. As to the kind of experiment: antibiotic sensitivity test (MIC, OD600 in 96-well plate, anaerobic). The assay is classed as cell-based. As to conditions: for MIC (final concentration of chloramphenicol): after 24 h of growth. As for the experimental part:
Bacterial culture conditions and strains have been previously published. All strains and cultures were maintained or grown in an atmosphere of 5.0% H2, 5.0% CO2, and 90.0% N2. Clostridium acetobutylicum strain ATCC 824 was obtained from ATCC and cultured using company protocol at 37° C. into Clostridial growth medium or CGM containing 0.75 g KH2PO4, 0.75 g K2HPO4, 1.0 g NaCl, 0.017 g MnSO4.5H2O, 0.70 g MgSO4.7H2O, 0.01 g FeSO4.7H2O, 2.0 g 1-asparagine, 5.0 g yeast extract, 2.0 g (NH4)2SO4, and 0.5% final concentration of desired carbohydrate—D-glucose, D-galacturonic acid, D-gluconic acid—at pH 6.5. Active cultures from initial growth stock were added to potato glucose medium to be maintained and stored as a spore solution. Potato glucose medium or PGM contains per liter of H2O—150 g grated fresh potato, 10 g D-glucose, 0.5 g (NH4)SO4, and 3 g CaCO3. The medium was boiled for 1 hour and strained through gauze before sterilization and use for culture. Spore solution was activated for culturing through a heat shock at 80° C. for 9 minutes. Shocked spore solution was added to CGM containing the feed stock of choice and grown to late log of 0.8 at optical density of 600 nm (OD600) at 37° C. Theses cultures were then used to perform antibiotic sensitivity experiments.
The protocol for antibiotic sensitivity test was performed as follows in anaerobic conditions: 200 μL of CGM medium containing either 0.5% D-galacturonate or D-glucose was aliquoted into a sterile Costar® 96-well polystyrene flat bottom plate in triplicate per test condition. Chloroamphenicol was dissolved in ethanol at different concentrations. Each chloroamphenicol concentration was added to each well in triplicate and considered a test condition. Test conditions included addition of 1 μL of ethanol, 1 of sterile water, 1 μL 0.1 mg mL^−1, 1 μL 0.25 mg mL^−1, 1 μL 0.5 mg mL^−1, 1 μL 1 mg mL^−1, 1 μL 2.5 mg mL^−1, 1 μL 5 mg mL^−1, 1 μL 10 mg mL^−1, 1 μL 20 mg mL^−1, and 1 μL 10 mg mL^−1. […] The optical density of the cultures in the wells were measured at 600 nm via a commercially available plate reader. […]

With `O=C(N[C@H](CO)[C@H](O)c1ccc([N+](=O)[O-])cc1)C(Cl)Cl` [chloramphenicol], the “MIC (final concentration of chloramphenicol)” value was determined as 2.4 µg/mL (C. acetobutylicum grown in CGM with 0.5% D-galacturonate (galacturonic acid) as feedstock) and 23.7 µg/mL (C. acetobutylicum grown in CGM with 0.5% D-glucose as feedstock). Further, the “increase of antibiotic susceptibility with oxidized feed stock compared to glucose as feed stock” value (C. acetobutylicum, in vitro, galacturonate vs glucose) stood at 10 fold.
